Measured values as given in the SangsterLogP compilation.

Point of comparison: `Cc1nc(-c2ccc(N)cc2)no1`, logP 1.71. Against it:
- CCCc1nnc(-c2ccc(N)cc2)o1 — higher, 2.27
- Nc1ccc(-c2nc(Cc3ccccc3)no2)cc1 — higher, 3.24
- Nc1ccc(-c2nnc(Cc3ccccc3)o2)cc1 — higher, 2.82
- CCc1noc(-c2ccc(N)cc2)n1 — higher, 2.22
- Nc1ccc(-c2nnc(-c3ccccc3)o2)cc1 — higher, 2.91
- CCc1nnc(-c2ccc(N)cc2)o1 — higher, 1.92
- CCCCc1nnc(-c2ccc(N)cc2)o1 — higher, 2.66
- CCCCC(=O)c1ccc(N)cc1 — higher, 2.48
- Cc1noc(-c2ccc(N)cc2)n1 — within 0.2 log units, 1.89
- CC(C)c1nnc(-c2ccc(N)cc2)o1 — higher, 2.23
- CCc1nc(-c2ccc(N)cc2)no1 — higher, 2.13
- CCCc1noc(-c2ccc(N)cc2)n1 — higher, 2.61
- Nc1ccc(-c2nc(-c3ccccc3)no2)cc1 — higher, 3.48
- CCC(=O)c1ccc(N)cc1 — within 0.2 log units, 1.65
- CCCc1nc(-c2ccc(N)cc2)no1 — higher, 2.54
- CCCc1nnc(-c2ccc(N)cc2)s1 — higher, 2.53
- CC(C)(C)c1nnc(-c2ccc(N)cc2)o1 — higher, 2.53
- CCc1nsc(-c2ccc(N)cc2)n1 — higher, 2.39
- Cc1nnc(-c2ccc(N)cc2)o1 — within 0.2 log units, 1.63
- CC(C)c1noc(-c2ccc(N)cc2)n1 — higher, 2.57
